Where two headings read alike, the source gives them in different places.

We go through two compounds from patent US11865086B2, “Cinnamaldehyde derivative compounds and methods of use for cinnamaldehyde derivative compounds nicotine cessation” (Pacific University, priority 2018, dated 2024).

Data set [1] has as its target T1, CYP2A6 (Homo sapiens, UniProt P11509).
T1 sequence (P11509 1-494): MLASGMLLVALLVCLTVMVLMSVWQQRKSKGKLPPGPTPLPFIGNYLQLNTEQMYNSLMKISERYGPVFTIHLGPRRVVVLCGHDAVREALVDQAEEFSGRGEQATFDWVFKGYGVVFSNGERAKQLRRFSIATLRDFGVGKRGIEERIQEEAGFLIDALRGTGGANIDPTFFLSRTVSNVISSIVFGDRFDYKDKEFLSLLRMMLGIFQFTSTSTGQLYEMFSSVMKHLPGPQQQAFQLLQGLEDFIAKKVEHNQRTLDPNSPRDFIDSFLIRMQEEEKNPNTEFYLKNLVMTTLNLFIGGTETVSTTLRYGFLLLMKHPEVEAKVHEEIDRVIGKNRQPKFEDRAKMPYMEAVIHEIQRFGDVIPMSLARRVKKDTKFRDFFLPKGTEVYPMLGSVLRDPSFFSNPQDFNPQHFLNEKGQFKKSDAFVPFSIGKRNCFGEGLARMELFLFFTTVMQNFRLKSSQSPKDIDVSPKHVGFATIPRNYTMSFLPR
Description: Time-dependent inhibition screen, recombinant CYP2A6 system, coumarin hydroxylase readout.
Description: (§1) Since this type of inhibition also requires that the inhibitor is initially metabolized by the target enzyme, MBIs may be identified by evaluating the inhibition in the presence and absence of cofactors that are required for activity, such as NADPH for CYPs.

For data set [2], the target named is T2, CYP2A6 (Homo sapiens, UniProt P11509, K28S/Q25K/Q26K/R27T/W24A).
T2 sequence (P11509 with tags, fused parts or gaps limits assumed): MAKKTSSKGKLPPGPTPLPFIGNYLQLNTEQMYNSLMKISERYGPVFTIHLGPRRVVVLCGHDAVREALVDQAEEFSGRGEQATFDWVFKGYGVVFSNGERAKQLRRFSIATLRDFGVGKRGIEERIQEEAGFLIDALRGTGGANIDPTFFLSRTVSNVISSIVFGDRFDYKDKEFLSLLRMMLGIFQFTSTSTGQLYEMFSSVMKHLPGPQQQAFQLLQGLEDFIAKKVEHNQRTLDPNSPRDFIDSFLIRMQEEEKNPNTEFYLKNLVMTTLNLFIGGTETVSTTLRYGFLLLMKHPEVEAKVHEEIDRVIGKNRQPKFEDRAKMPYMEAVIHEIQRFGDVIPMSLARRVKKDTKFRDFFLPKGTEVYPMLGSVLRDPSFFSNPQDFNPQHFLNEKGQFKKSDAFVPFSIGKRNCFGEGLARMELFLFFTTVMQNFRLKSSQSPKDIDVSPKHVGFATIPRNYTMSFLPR
Description: biochemical.
Description: Spectral binding studies were conducted using purified heterologously expressed CYP2A6 in Escherichia coli. […] Absorbance changes (A386-A418) may be plotted against added ligand concentrations in order to determine dissociation constants.
In more detail, the CYP2A6 enzyme may be heterologously expressed in Escherichia coli and purified. The expression vector, pKK2A6dH may be used to express the enzyme. The vector contains a cDNA sequence that codes for human CYP2A6 with a deletion of the N-terminal transmembrane sequence, an alteration of several residues at the modified N-terminus to increase expression, and four histidine residues added at the C-terminus to aid in purification. […] Expression from the vector may be induced with the addition of IPTG to bacterial cultures. δ-Aminolevulinic acid is added during expression to supplement heme biosynthesis. The enzyme may be purified following previously reported protocols. Briefly, following cell disruption, the solubilized enzyme may be purified using Ni^2+-affinity chromatography and cation-exchange (CM sepharose) chromatography, which may lead to protein of high purity and P450 content.

The conditions of data set [3]: obtained from PubChem and ChemSpider; cited from earlier work.
Data set [4] concerns the target T1, CYP2A6. Description: in vitro. The settings on record: recombinant CYP2A6, probe coumarin.
Description: as §1
The target in data set [5] is T1, CYP2A6. Description: biochemical.
Description: A 96-well plate assay and fluorescence spectroscopy may be used to quantify the product, 7-hydroxycoumarin.
Data was fit using GraphPad Prism.
For data set [6], the target named is T3, CYP2A6-mediated nicotine metabolism (Homo sapiens, UniProt P11509).
T3 sequence (P11509 1-494): T1 sequence (P11509 1-494)
Description: Model (Equation 2) predicting change in nicotine AUC from mechanism-based inhibition parameters. As to conditions: Table 5, predicted nicotine AUC.

Data set [7] has as its target T1, CYP2A6. Description: biochemical. The source holds these as a separate data set.
Description: as §1
For data set [8] the following is noted: in vivo; cited from earlier work.
The target in data set [9] is T1, CYP2A6. As to conditions: recombinant enzyme.
Description: as §1
For data set [10] the following is noted: rat, in vivo, po, 250 mg/kg; cited from earlier work.
On the set-up of data set [11]: species or system humans. As to conditions: human. On the procedure: This has also observed in rats, for which full pharmacokinetic studies are available. Converting the dose in rats to humanized equivalent doses can estimate the doses necessary to achieve low μM concentrations of CA in humans. […] In rats a single 250 mg/kg oral dose generated a t-CA blood concentration of 7.6 μM. With the BSA method, t-CA doses of 32 mg and 320 mg per day are estimated to achieve concentrations of 0.1 and 1 μM in humans.

For `O=C/C(Br)=C/c1ccccc1` [α-bromo-CA, α-bromocinnamaldehyde], on CYP2A6 [1] (Table 5), the kinact (as a rule, the rate constant of inactivation at saturating inhibitor) is “.017 min⁻¹” and the kinact/kI came to 0.000463. The “Fold difference (with respect to CA)” value on CYP2A6 [1] (kinact/kI relative to t-CA) is listed as 0.32. The “time-dependent inhibition of CYP2A6, result in words” value on CYP2A6 [1] (with NADPH, 7-hydroxycoumarin formation) is “less potency as compared to t-CA”. Further, on CYP2A6 [2], the Kd (commonly the free concentration of one partner at which half of the binding sites on the other are occupied at equilibrium, for simple one-to-one binding) turned out to be 8.2 µM. Moreover, in data set [3], the Log P – broadly, the decadic logarithm of the partition coefficient of the neutral form, usually between octanol and water – is reported as 2.7. Further, on CYP2A6 [4], the inactivation rate constant (kinact) was 0.000283 s⁻¹ and the kinact/KI (commonly the second-order rate constant of inactivation) is 7.83 M⁻¹ s⁻¹. In addition, the IC50 (as a rule, the concentration at which inhibition is half-maximal) against CYP2A6 [5] was 2.8 µM. Further, the AUC fold increase in data set [6] was 1.35-1.84. Also, on CYP2A6 [7], the Ki (in general, a dissociation constant, usually derived from enzyme kinetics or from competition with a known ligand) is 36.3 µM.

At CYP2A6 [2], `O=C/C=C/c1ccccc1` [t-CA, trans-cinnamaldehyde] had a Kd of 14.9 µM. Also, the “absorption upon oral administration” value in data set [8] was “completely absorbed”. The IC50 on CYP2A6 [5] turned out to be 6.9 ± 1.2 µM. The “time-dependent inhibition of CYP2A6, result in words” value on CYP2A6 [9] is “increases with time”. For the same compound, the t-CA blood concentration in [10] was 7.6 µM. The “estimated t-CA dose” value was 32 mg per day in [11] (0.1 μM) and 320 mg per day in data set [11] (1 μM). On CYP2A6 [7], this compound yielded a Ki of 27.2 µM.
